Results: patent publication US20060148858A1, “1, 2-Azole derivatives with hypoglycemic and hypolipidemic activity” (priority 2002, published 2006)

Tested on: KKAY mice
Assay: Plasma anti-arteriosclerosis index-enhancing action in mice (Test Example 2)
Type: in vivo
Settings: Mus musculus, po, 96 h, 0.005% in powdery diet, four days, percent increase of (HDL cholesterol/total cholesterol)x100, non-treatment group taken as 100%
Method: Test compounds were mixed in a powdery diet (CE-2, Japan Clea) at the concentration of 0.005%, and freely given to KKAY mice (9 to 12 weeks old, 5 mice per group), a model of obese and non-insulin dependent diabetes (type 2 diabetes), for four days. During this period, water was given freely. Blood was sampled from orbital venous plexus and components in plasma separated from blood were determined. Total cholesterol levels were determined by using L type Wako Cholesterol (Wako Pure Chemical Industries, Ltd.). Precipitation reagent for HDL cholesterol (Wako Pure Chemical Industries, Ltd.) was added to a part of the plasma to precipitate non-HDL lipoprotein, and cholesterol (HDL cholesterol) in the resulting supernatant was determined. The plasma anti-arteriosclerosis index [(HDL cholesterol/total cholesterol)×100] was calculated by using these cholesterol levels.
In the Table, “Plasma anti-arteriosclerosis index-enhancing action (%)” represents the percent increase (%) of plasma anti-arteriosclerosis index in the treatment group, when the plasma anti-arteriosclerosis index in the non-treatment group is taken as 100%.

Going from CCOc1nn(-c2ccc(C(F)(F)F)cn2)cc1CCCOc1cccc(CC(=O)O)c1 [Example 30, [3-(3-{3-ethoxy-1-[5-(trifluoromethyl)-2-pyridyl]-1H-pyrazol-4-yl}propoxy)phenyl]acetic acid] to CCOc1nn(-c2ccc(C(F)(F)F)cn2)cc1CCCOc1ccccc1CC(=O)O [Example 31, (2-(3-{3-ethoxy-1-[5-(trifluoromethyl)-2-pyridyl]-1H-pyrazol-4-yl}propoxy)phenyl]acetic acid], the change in vivo at 0.005 % in diet falls from 19% to 16%.

Going from O=C(O)CCc1cc(OCCCc2cn(-c3ccc(C(F)(F)F)cn3)nc2C2CCCCC2)nn1-c1ccccc1 [Example 189, 3-[3-(3-{3-cyclohexyl-1-[5-(trifluoromethyl)-2-pyridyl]-1H-pyrazol-4-yl}propoxy)-1-phenyl-1H-pyrazol-5-yl]propionic acid] to Cc1cccc(CC(=O)O)c1OCCCc1cn(-c2ccc(C(F)(F)F)cn2)nc1C1CCCCC1 [Example 316, [2-(3-{3-cyclohexyl-1-[5-(trifluoromethyl)-2-pyridinyl]-1H-pyrazol-4-yl}propoxy)-3-methylphenyl]acetic acid], the change in vivo at 0.005 % in diet falls from 20% to 10%.

First: CCC(CC)c1nn(-c2ccc(Cl)cn2)cc1CCCOc1c(CC(=O)O)cccc1OC [Example 223, (2-{3-[1-(5-chloro-2-pyridyl)-3-(1-ethylpropyl)-1H-pyrazol-4-yl]propoxy}-3-methoxyphenyl)acetic acid]
Second: CCC(CC)c1nn(-c2ccc(C(F)(F)F)nn2)cc1CCCOc1c(C)cccc1CC(=O)O [Example 340, [2-(3-{3-(1-ethylpropyl)-1-[6-(trifluoromethyl)pyridazin-3-yl]-1H-pyrazol-4-yl}propoxy)-3-methylphenyl]acetic acid]
The change in vivo at 0.005 % in diet of the first is lower: 12% for the first, 21% for the second.

Compared with COc1cccc(CC(=O)O)c1OCCCc1cn(-c2ccc(C(F)(F)F)nn2)nc1C(C)C [Example 274, [2-(3-{3-isopropyl-1-[6-(trifluoromethyl)pyridazin-3-yl]-1H-pyrazol-4-yl}propoxy)-3-methoxyphenyl]acetic acid], COc1ccc(CC(=O)O)cc1OCCCc1cn(-c2ccc(C(F)(F)F)cn2)nc1C1CCCCC1 [Example 304, [3-(3-{3-cyclohexyl-1-[5-(trifluoromethyl)-2-pyridinyl]-1H-pyrazol-4-yl}propoxy)-4-methoxyphenyl]acetic acid] is higher in change in vivo at 0.005 % in diet: 11% for the first, 13% for the second.
